One series relates to α-syn. The experiment in a line: Yeast growth rescue from α-syn toxicity (dose-response). The class given is cell-based. As for the experimental part: For galactose-induction experiments, overnight cultures were grown in CSM/2% glucose to saturation and diluted 1:20 into CSM/2% raffinose for ˜2 generations. Cultures were then diluted into CSM/2% galactose at an optimum OD600 for the experiment (see ‘Growth assays’).
Source plates were assembled in 96 well plates using multichannel pipettes to dilute rows in 1.6-fold serial dilutions of CSMGal. […] For α-syn, the final starting OD600 was 0.02. Drug concentration ranges varied depending on efficacy, growth inhibition, and solubility in media. A Tecan EvoFreedom liquid handling robot was then used to transfer culture from 96 to 384 well format with each well being represented four times. Final well volume was 35 μL. Plates were then incubated in humidified containers at 30° C. for either 24 or 40 hours. Plates were then read with a Tecan Saphire plate reader at OD600.
Raw OD600 values were transformed to “Relative Growth” in WT cells or “% Maximum Rescue” in α-syn experiments. In WT cells, the well background was subtracted and all values were then normalized to 100% for the untreated condition. In α-syn rescue experiments, the well background was subtracted and the maximum rescue in the particular experiment was normalized to 100%.

The test system of series [1] is dopaminergic (DA) neurons. In words: C. elegans model of α-syn toxicity. As to conditions: nematodes expressing α-syn and GFP in DA neurons. The class given is in vivo. Here is the method: Drug treatments of the C. elegans α-syn model were performed as previously described (6). Briefly, age-synchronized worms were obtained by treating gravid adults with 2% sodium hyopchlorite and 0.5M NaOH to isolate embryos (36). Variable concentrations of ABI1 or 0.2% DMSO was applied to embryos suspended in M9 buffer (22 mM KH2PO4, […], 85 mM NaCl, 1 mM MgSO4) (time 0), and incubated at 25 C for 24 hours to obtain a synchronized L1 population. Worms were washed three times in distilled water and one additional rinse in M9 buffer. The synchronized L1 worms were plated on regular nematode growth media (NGM) plates seeded with 100 uL of Eschericia coli (OP50). Worms were then transferred every other day to new plates to insure food abundance and eliminate progeny contamination. Worms were then analyzed seven days post-hatching. Analyses were carried out according to the criteria previously described (37). In each case, ˜30-40 animals were scored for the percent of WT animals. Experiments were completed in triplicate and averages calculated. A one-way ANOVA and Tukey's test was used to determine significance.

A further series relates to FUS/TLS. In words: Yeast growth rescue, FUS/TLS proteinopathy model. It is filed as cell-based. Here is the method: (A) Structure of lead compound ABI. (B) Dose-response curves showing the relative rescue of ABI (log2, μM) in five yeast proteinopathy models. Rescue is relative to a positive control compound as determined by growth (OD600). (C) Localization of α-syn-GFP in strains with increasing toxicity: NoTox, InTox, HiTox and HiTox treated with 10 μM ABI. […] (E) (Left panel) Western blot of α-syn-GFP in NoTox, InTox, and HiTox strains with anti-α-syn antibody. (Right panel) Quantitation of western blot (α-syn relative to total protein quantitated from a Coomassie gel and normalized to 100% for HiTo). **: P<0.01; and ***: P<0.001, according to one-way ANOVA and a Tukey's test.
Yeast strains expressing toxic proteins have been described previously (6, 9, 33, 34) (Table 1). All strains have either single or multiple inserts for galactose-inducible expression. In addition, all stains have either deletions of the Δpdr1::KanMX and Δpdr3::KanMX or Δpdr5::KanMX to reduce efflux of compounds and required compound dosing. Yeast were cultured in complete synthetic media (CSM) and an appropriate dropout (minus HIS or URA) to maintain plasmids if required. […]
Starting cultures for all dose-response assays were established as described above. […] Plates were then read with a Tecan Saphire plate reader at OD600.

With `Cc1cccc(-n2cnc3cc(C(=O)NCc4ccccc4Cl)ccc32)c1` [ABI, N-(2-chlorobenzyl)-1-(m-tolyl)-1H-benzo[d]imidazole-5-carboxamide], the melting point fell in the range of 129 to 131 °C. Besides, the “growth-inhibitory concentration relative to EC50 in rescuing α-syn toxicity” value with α-syn is “about four-fold”. In addition, the “potency and efficacy against α-syn (rescue of growth)” value with α-syn (compared with TDP-43 model) was “much greater potency and efficacy”. The “rescue of DA neurons from α-syn toxicity” value in series [1] is given as “partial, yet highly significant, rescue”. Moreover, the “efficacy against FUS/TLS” value with FUS/TLS was “not, however, effective”.

By melting point is commonly meant the temperature, or range, at which the solid turns liquid.

The values are drawn from patent US9790188B2, “Benzimidazole derivatives and uses thereof” (Whitehead Institute for Biomedical Research, priority 2013, dated 2017).
